Results on 24 compounds are retold here after patent US12187728B2 (Raze Therapeutics, Inc., priority 2015, dated 2025).

For orientation: IC50 means the midpoint of a concentration-inhibition curve. Low readings indicate inhibition by little substance, high ones a need for much substance.

SMILES strings stand for the structures. Some results are limits rather than exact numbers.

The target in the assay is T1, Human MTHFD2 (Homo sapiens, UniProt P13995).
T1 construct: residues 36-350 in Uniport ID P13995; His6 (N); made in house; host or cells: E. coli
T1 sequence (P13995 36-350): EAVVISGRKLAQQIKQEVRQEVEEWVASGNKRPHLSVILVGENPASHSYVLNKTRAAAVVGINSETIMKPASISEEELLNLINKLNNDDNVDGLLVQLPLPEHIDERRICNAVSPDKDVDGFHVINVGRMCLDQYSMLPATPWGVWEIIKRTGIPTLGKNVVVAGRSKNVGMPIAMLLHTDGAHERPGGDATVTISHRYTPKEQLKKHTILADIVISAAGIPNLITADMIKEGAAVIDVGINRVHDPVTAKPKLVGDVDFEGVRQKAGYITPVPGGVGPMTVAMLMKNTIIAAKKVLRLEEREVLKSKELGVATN
Description: MTHFD2 Activity Assay (dehydrogenase activity, diaphorase/resazurin coupled fluorescence). It is filed as biochemical. Particulars: inhibitory activity (IC50 and/or binding constant); 0.2 nM MTHFD2, 11 concentrations. The text has this: Human MTHFD2 (residues 36-350 in Uniport ID P13995) was expressed as an N-terminal His6 tagged protein and purified in E. coli using nickel capture followed by size-exclusion chromatography.
MTHFD2 dehydrogenase activity oxidizes methylene tetrahyrofolate to methenyl-tetrahydrofolate with the concomitant reduction of NAD to NADH. MTHFD2 dehydrogenase activity was followed by coupling the generation of NADH to diaphorase catalyzed […] of resazurin to fluorescent resorufin. Briefly, control (DMSO) or compound was incubated with 0.2 nM MTHFD2 for 15 minutes in 10.5 μl assay buffer containing 100 mM Hepes, pH 8.0, 5 mM MgCl2, 5 mM KH2PO4, 0.05% BSA, 0.01% Tween-20 in a 384 well Griener, low volume, black plate. 10 μl of substrate buffer containing 70 μM CH2-THF, 1 mM NAD^+, 100 μM Resazurin and 0.42 mg/ml diaphorase was then added to initiate the reaction and the reaction plate was incubated for 30 minutes. 5 μl of 250 mM EDTA was then added to each well to stop the reaction and MTHFD2 activity was quantified by measuring resorufin fluorescence emission at 598 nm following excitation at 525 nm. Activity in positive control wells containing the complete reaction mixture and DMSO alone was set to 100% while activity in negative control wells with the complete reaction mix without MTHFD2 was set to 0%. 11 concentrations of each compound were tested and the fluorescent data at each concentration was normalized to the positive and negative controls and represented as % inhibition. Median inhibitory concentration (IC50) was calculated by fitting % inhibition at each concentration to a 4 parameter logistic fit equation using Graphpad Prizm.
The compound numbers correspond to the compound numbers in Table A (i.e., the example numbers).
In general terms: Resazurin is reduced to fluorescent resorufin, in cell work by metabolically active cells.
`Cn1c(N[C@H]2CC[C@@H](O)C2)nc2c1c(=O)n(Cc1ccc3sccc3c1)c(=O)n2C` (racemic) [Example 74, (±)-1-(1-benzothiophen-5-ylmethyl)-8-{[(cis)-3-hydroxycyclopentyl]amino}-3,7-dimethyl-2,3,6,7-tetrahydro-1H-purine-2,6-dione or (±)-1-(1-benzothiophen-5-ylmethyl)-8-{[(trans)-3-hydroxycyclopentyl]amino}-3,7-dimethyl-2,3,6,7-tetrahydro-1H-purine-2,6-dione] returned an IC50 of 10 to 1000 nM.

Regarding `CN(C)C1CCCC(Nc2nc3c(c(=O)n(Cc4ccc(Cl)c(Cl)c4)c(=O)n3C)n2C)C1` (racemic) [Example 84, (±)-1-(3,4-dichlorobenzyl)-8-(((cis)-3-(dimethylamino)cyclohexyl)amino)-3,7-dimethyl-3,7-dihydro-1H-purine-2,6-dione or (±)-1-(3,4-dichlorobenzyl)-8-(((trans)-3-(dimethylamino)cyclohexyl)amino)-3,7-dimethyl-3,7-dihydro-1H-purine-2,6-dione], the IC50 lay in the range of 1000 to 5000 nM.

`Cn1c(NC2CNC(=O)C2)nc2c1c(=O)n(Cc1ccc(Cl)c(Cl)c1)c(=O)n2C` (racemic) [Example 88, (±)-1-[(3,4-dichlorophenyl)methyl]-3,7-dimethyl-8-[(5-oxopyrrolidin-3-yl)amino]-2,3,6,7-tetrahydro-1H-purine-2,6-dione]: the IC50 was in the range of 10 to 1000 nM.

As for `Cn1c(NC2CCCNC2=O)nc2c1c(=O)n(Cc1ccc(Cl)c(Cl)c1)c(=O)n2C` (racemic) [Example 89, (±)-1-[(3,4-dichlorophenyl)methyl]-3,7-dimethyl-8-[(2-oxopiperidin-3-yl)amino]-2,3,6,7-tetrahydro-1H-purine-2,6-dione], the IC50 lay in the range of 10 to 1000 nM.

In turn, `Cn1c(N[C@H]2CCCC[C@@H]2O)nc2c1c(=O)n(Cc1ccc(Cl)c(Cl)c1)c(=O)n2C` (racemic) [Example 91, (±)-1-[(3,4-dichlorophenyl)methyl]-8-{[(trans)-2-hydroxycyclohexyl]amino}-3,7-dimethyl-2,3,6,7-tetrahydro-1H-purine-2,6-dione±] returned an IC50 of 10 to 1000 nM.

Compound `Cn1c(N[C@@H]2CCCC[C@@H]2O)nc2c1c(=O)n(Cc1ccc(Cl)c(Cl)c1)c(=O)n2C` (racemic) [Example 95, (±)-1-[(3,4-dichlorophenyl)methyl]-8-{[(cis)-2-hydroxycyclohexyl]amino}-3,7-dimethyl-2,3,6,7-tetrahydro-1H-purine-2,6-dione] came in with an IC50 of 1000 to 5000 nM.

`Cn1c(NC2CCCC(C(=O)O)C2)nc2c1c(=O)n(Cc1ccc(Cl)c(Cl)c1)c(=O)n2C` (racemic) [Example 114, (±)-3-(1-(3,4-dichlorobenzyl)-3,7-dimethyl-2,6-dioxo-2,3,6,7-tetrahydro-1H-purin-8-ylamino)cyclohexanecarboxylic acid] registered an IC50 of 10 to 1000 nM.

As for `Cn1c(NC2CCCC(C(=O)O)C2)nc2c1c(=O)n(Cc1ccc(C(F)(F)F)cc1)c(=O)n2C` (racemic) [Example 115, (±)-3-(3,7-dimethyl-2,6-dioxo-1-(4-(trifluoromethyl)benzyl)-2,3,6,7-tetrahydro-1H-purin-8-ylamino)cyclohexanecarboxylic acid], the IC50 was in the range of 1000 to 5000 nM.

`Cn1c(N[C@H]2CC[C@@H](O)C2)nc2c1c(=O)n(Cc1cc3ccccc3[nH]1)c(=O)n2C` (racemic) [Example 155, (±)-1-((1H-indol-2-yl)methyl)-8-((cis)-3-hydroxycyclopentylamino)-3,7-dimethyl-1H-purine-2,6(3H,7H)-dione] displayed an IC50 of 10 to 1000 nM.

In turn, `Cn1c(N[C@H]2CC[C@@H](O)C2)nc2c1c(=O)n(Cc1ccc3cc[nH]c3c1)c(=O)n2C` (racemic) [Example 163, (±)-1-((1H-indol-6-yl)methyl)-8-((cis)-3-hydroxycyclopentylamino)-3,7-dimethyl-1H-purine-2,6(3H,7H)-dione] came in with an IC50 of 1000 to 5000 nM.

On to `Cn1c(NC2CCC(C)(O)C2)nc2c1c(=O)n(Cc1ccc(Cl)c(Cl)c1)c(=O)n2C` (racemic) [Example 164, 1-[(3,4-dichlorophenyl)methyl]-8-[(3-hydroxy-3-methylcyclopentyl)amino]-3,7-dimethyl-2,3,6,7-tetrahydro-1H-purine-2,6-dione], for which the IC50 fell in the range of 10 to 1000 nM.

Consider `Cn1c(N[C@H]2CC[C@@H](O)C2)nc2c1c(=O)n(Cc1ccc(C(F)(F)F)cc1)c(=O)n2C` (racemic) [Example 171, (±)-8-((cis)-3-hydroxycyclopentylamino)-3,7-dimethyl-1-(4-(trifluoromethyl)benzyl)-1H-purine-2,6(3H,7H)-dione], for which the IC50 lay within 1000 to 5000 nM.

`Cn1c(N[C@@H]2CCC[C@@H](O)C2)nc2c1c(=O)n(Cc1ccc(Cl)c(Cl)c1)c(=O)n2C` (racemic) [Example 172, (±)-1-(3,4-dichlorobenzyl)-8-((trans)-3-hydroxycyclohexylamino)-3,7-dimethyl-1H-purine-2,6(3H,7H)-dione] showed an IC50 of 10 to 1000 nM.

Take `Cn1c(N[C@H]2CCC[C@@H](O)C2)nc2c1c(=O)n(Cc1ccc(Cl)c(Cl)c1)c(=O)n2C` (racemic) [Example 173, (±)-1-(3,4-dichlorobenzyl)-8-((cis)-3-hydroxycyclohexylamino)-3,7-dimethyl-1H-purine-2,6(3H,7H)-dione]: the IC50 was in the range of 10 to 1000 nM.

On to `Cn1c(N[C@H]2CC[C@@H](O)C2)nc2c1c(=O)n(Cc1cc3cc(Cl)ccc3[nH]1)c(=O)n2C` (racemic) [Example 175, (±)-1-((5-chloro-1H-indol-2-yl)methyl)-8-((cis)-3-hydroxycyclopentylamino)-3,7-dimethyl-1H-purine-2,6(3H,7H)-dione], for which the IC50 was in the range of 10 to 1000 nM.

The compound `Cc1ccc2[nH]c(Cn3c(=O)c4c(nc(N[C@H]5CC[C@@H](O)C5)n4C)n(C)c3=O)cc2c1` (racemic) [Example 177, (±)-8-((cis)-3-hydroxycyclopentylamino)-3,7-dimethyl-1-((5-methyl-1H-indol-2-yl)methyl)-1H-purine-2,6(3H,7H)-dione] had an IC50 of 10 to 1000 nM.

With `Cn1c(Cn2c(=O)c3c(nc(N[C@H]4CC[C@@H](O)C4)n3C)n(C)c2=O)cc2cc(Cl)ccc21` (racemic) [Example 178, (±)-1-((5-chloro-1-methyl-1H-indol-2-yl)methyl)-8-((cis)-3-hydroxycyclopentylamino)-3,7-dimethyl-1H-purine-2,6(3H,7H)-dione], the IC50 fell in the range of 10 to 1000 nM.

The compound `Cn1c(Cn2c(=O)c3c(nc(N[C@H]4CC[C@@H](O)C4)n3C)n(C)c2=O)cc2ccccc21` (racemic) [Example 179, (±)-8-((cis)-3-hydroxycyclopentylamino)-3,7-dimethyl-1-((1-methyl-1H-indol-2-yl)methyl)-1H-purine-2,6(3H,7H)-dione] gave an IC50 of 10 to 1000 nM.

In turn, `Cn1c(N[C@H]2CC[C@@H](O)C2)nc2c1c(=O)n(Cc1cc(-c3ccccc3)n[nH]1)c(=O)n2C` (racemic) [Example 180, (±)-8-((cis)-3-hydroxycyclopentylamino)-3,7-dimethyl-1-((3-phenyl-1H-pyrazol-5-yl)methyl)-1H-purine-2,6(3H,7H)-dione] had an IC50 above 10000 nM.

Compound `Cn1c(NC2CCNC(=O)C2)nc2c1c(=O)n(Cc1ccc(Cl)c(Cl)c1)c(=O)n2C` (racemic) [Example 211, (±)-1-(3,4-dichlorobenzyl)-3,7-dimethyl-8-(2-oxopiperidin-4-ylamino)-1H-purine-2,6(3H,7H)-dione] displayed an IC50 of 10 to 1000 nM.

In the case of `Cn1c(NC2CNC(=O)C2)nc2c1c(=O)n(Cc1cc3ccccc3[nH]1)c(=O)n2C` (racemic) [Example 214, (±)-1-((1H-indol-2-yl)methyl)-3,7-dimethyl-8-(5-oxopyrrolidin-3-ylamino)-1H-purine-2,6(3H,7H)-dione], the IC50 lay in the range of 10 to 1000 nM.

Regarding `Cn1c(NC2CCNC(=O)C2)nc2c1c(=O)n(Cc1cc3ccccc3[nH]1)c(=O)n2C` (racemic) [Example 215, (±)-1-((1H-indol-2-yl)methyl)-3,7-dimethyl-8-(2-oxopiperidin-4-ylamino)-1H-purine-2,6(3H,7H)-dione], the IC50 fell in the range of 10 to 1000 nM.

`Cn1c(NC2CCNC2=O)nc2c1c(=O)n(Cc1cc3ccccc3[nH]1)c(=O)n2C` (racemic) [Example 222, (±)-1-((1H-indol-2-yl)methyl)-3,7-dimethyl-8-(2-oxopyrrolidin-3-ylamino)-1H-purine-2,6(3H,7H)-dione] came in with a half-inhibitory concentration (IC50) of 10 to 1000 nM.

The compound `Cn1c(N[C@@H]2CC[C@@H](O)C2)nc2c1c(=O)n(Cc1ccc(C#N)c(Cl)c1)c(=O)n2C` (racemic) [Example 247, (±)-2-chloro-4-((8-((trans)-3-hydroxycyclopentylamino)-3,7-dimethyl-2,6-dioxo-2,3,6,7-tetrahydro-1H-purin-1-yl)methyl)benzonitrile] showed an IC50 of 1000 to 5000 nM.
